2 molecules from patent US8629186B2, “Polymer micelles containing anthracyclines for the treatment of cancer” (Intezyne Technologies, Inc., priority 2009, dated 2014) can be followed below.

Where two headings read alike, the source gives them in different places.

One data set has as its system 786-0 cells. Briefly: Cytotoxicity of daunorubicin micelles compared to free daunorubicin, 72 hours, Cell-Titer Glo. The format is cell-based. Conditions: Homo sapiens, 786-0, 72 h. The method, then:
(§1) All cell lines were obtained from ATCC (Manassas, Va.). Media and supplements were obtained from Cell Gro (Manassas, Va.). HT-1080 cells were maintained in Eagle's Minimum Essential Medium supplemented with 10% FBS, 2 mM L-Glutamine, 1 mM sodium pyruvate, and 100 units/mL of penicillin and streptomycin. […] Cells were treated in triplicate. […] It should be noted that the IC50 values of the daunorubicin micelles are very similar to free daunorubicin.

The test system of another data set is HT-1080 cells. The description is as above. Conditions: Homo sapiens, HT-1080, 72 h. The format is cell-based. The method, then: as §1
The subject of the next data set is MG-63 cells. The data set is described as above. In kind it is cell-based. Conditions: Homo sapiens, MG-63, 72 h. The method, then:
as §1

Another data set relates to SKOV-3 cells. The description is as above. In kind it is cell-based. Conditions: Homo sapiens, SK-OV-3, 72 h. The method, then: as §1
Data set [1] is described as follows: Rat pharmacokinetics of daunorubicin micelles compared to free daunorubicin (Example 54). The format is in vivo, Fisher rats. Conditions: plasma. The method, then:
The delivery vehicle for drug administration was isotonic saline.
This study was repeated, and the micelles were injected in the same rats seven days after the first injection. The pharmacokinetic results are shown in the table below, and graphed in FIG. 22.

Data set [2] in a line: Pharmacokinetics of crosslinked DOX loaded micelles in mice (Example 29). To be noted: athymic nude mice, 15 mg/kg fast IV bolus tail vein, plasma doxorubicin. The method, then:
Athymic nude mice were injected with 15 mg/kg of either doxorubicin, crosslinked dox loaded micelles (IT-143, Example 24), or dox loaded micelles (Example 23) by a fast IV bolus into the tail vein with an injection volume of 0.2-0.4 mL. The delivery vehicle for drug administration was isotonic saline. Mouse blood was collected from mice into K2-EDTA tubes by heart puncture at time points of 5 minutes, 15 minutes, 1 hour, and 4 hours. Plasma was isolated by centrifugation at 1000 RPM for 5 minutes, and 150 uL of extraction solution (ice cold methanol/100 ng/mL daunorubicin internal standard) was added to 50 uL of each plasma sample. Samples are then vortexed for 10 minutes, centrifuged at 13,000 RPM for 10 minutes, and 150 uL of the supernatant is transferred to HPLC vials for analysis.
(§2) Samples were analyzed on a Waters Alliance 2695 equiped with a 2475 fluorescence detector (Ex=470 nm; Em=580). A 5 μL sample injection was made onto a Waters 4 μm Nova Pak C18 (3.9×150 mm) at 30° C. with a flow rate of 0.750 mL per minute of 10 mM phosphate buffer (pH=1.4), methanol and acetonitrile (gradient from 70/10/20 to 40/10/50 for buffer/methanol/acetonitrile was made over eight minutes).

For data set [3] the following is noted: rat, in vivo, iv, 10 mg/kg. The method, then:
The delivery vehicle for drug administration was isotonic saline. Rat blood was collected from the catheter into K2-EDTA tubes […] at time points of 1, minute, 5 minutes, 15 minutes, 1 hour, 4 hours, 8 hours and 24 hours. Plasma was isolated by centrifugation at 1000 RPM for 5 minutes, and 150 uL of extraction solution (ice cold methanol/100 ng/mL daunorubicin internal standard) was added to 50 uL of each plasma sample. Samples were then vortexed for 10 minutes, centrifuged at 13,000 RPM for 10 minutes, and 150 uL of the supernatant is transferred to HPLC vials for analysis.
as §2

For `COc1cccc2c1C(=O)c1c(O)c3c(c(O)c1C2=O)C[C@@](O)(C(C)=O)C[C@@H]3O[C@H]1C[C@H](N)[C@H](O)[C@H](C)O1` [Daunorubicin, daunorubicin], the IC50 was 0.231 ± 0.011 µM in the data set on 786-0 cells, 0.546 ± 0.057 µM in the data set with HT-1080 cells, 0.231 ± 0.011 µM in the data set with MG-63 cells and 0.2 ± 0.012 µM in the data set on SKOV-3 cells. Besides, the Cmax in data set [1] (Fisher rats, 10 mg/kg fast IV bolus, Day 0 (first injection)) amounted to 3290 ng/mL; in data set [1] (Fisher, rat, intravenous, 10 mg/kg, repeat experiment, same rats seven days after the first injection, read-out: Cmax), 10600 ng/mL. For the same molecule, in data set [1] (Fisher, rat, intravenous, 10 mg/kg, repeat experiment, same rats seven days after the first injection), the AUC amounted to 3540 ng·h/mL.

In data set [2], `COc1cccc2c1C(=O)c1c(O)c3c(c(O)c1C2=O)C[C@@](O)(C(=O)CO)C[C@@H]3O[C@H]1C[C@H](N)[C@H](O)[C@H](C)O1` [Free Dox, doxorubicin] gave an area under the curve (AUC) of 200 ng·h/mL, a Cmax of 210 ng/mL and a T½ of 5.4 h. Besides, in data set [3], the AUC was determined as 2610 ng·h/mL and the Cmax is 9760 ng/mL.
